According to patent US10420803B2, “Differentiation of pluripotent stem cells to intestinal midgut endoderm cells” (Janssen Biotech, Inc., priority 2016, dated 2019):

Legend:
Type in all cases: cell-based, human
[1] = system: H1-hESC-derived S3D5 cells; test: Cell number characterization using the Nucleocounter NC-100
Procedure: A summary of a differentiation method, including the important medium components, growth factors and small molecules that were added to each stage, and key stage-specific markers of the differentiating intestinal midgut endoderm cells (FOXA2; CDX2; KLF5; SOX9; PDX1^LO) is depicted in FIG. 1A. As compared to the neutral pH noted for S2D2 (7.35±0.04), cells were exposed to slightly acidic conditions in the BLAR medium, during the entirety of stage 3 (pH; S3D1, 6.98±0.05; S3D2, 7.02±0.04; S3D5, 7.18±0.03) (FIG. 1B), and as a result of lower sodium bicarbonate levels in BLAR medium. The pH of the culture can range from about 6.8 to 7.2 during the five days of stage 3. FIG. 1C depicts representative phase-contrast images of a S3D5 monolayer (left), and human epithelial colon adenocarcinoma cell line (“Caco-2”) (right), which was used as a benchmark for characterization of differentiation. A uniform morphology at S3D5 was observed.

[2] = system: H1-hESC-derived S3D5 cells; test: Gene expression by qPCR (Taqman Arrays) in S3D5 cells
Procedure: (§1) Differentiation: The cultures were differentiated using the following protocol. During Stages 1 through 3 of the protocol, cultures were maintained on planar adherent cultures. […] The following nomenclature, S#D#, specifies exact time during Stages 1 through 3. For example, S1D3 is stage 1 day 3. Briefly, each stage defines differentiation towards definitive endoderm (stage 1), primitive gut tube (stage 2), and intestinal midgut endoderm (stage 3). • a. Stage 1 (3 days): Cells were cultured for one day in the following Stage 1 media:
For quantification of gene expression at various stages, Caco-2, H1-hESC, S1D3, S2D2, S3D2 and S3D5 cells were harvested, as described in Nature Biotechnology, 2014 (32) 11, 1121-1133. Briefly, gene expression was assessed in cells using custom Taqman® Arrays (Applied Biosystems, Foster City, Calif.); Open Array® (OA) was used for CDX2, FOXA2, SOX2, SOX9, PDX1, ALB, PTF1A, and Taqman® Low Density Array (TLDA) was used for KLF5, HOXC5, and LGR5, with housekeeping gene GAPDH used for both tests. Data were analyzed using Sequence Detection Software (Applied Biosystems, Foster City, Calif.), and normalized using GAPDH as a housekeeping gene to undifferentiated H1-hESC using the ΔΔCt method. Primer details are outlined in Table IV.

[3] = system: H1-hESC-derived S3D5 cells; test: FACS quantification of protein co-presence in S3D5 cells
Procedure: as §1
Quantification of differentiated cells: For quantification of protein presence co-localization, S3D5 cells were harvested and analyzed by FACS. FACS staining was conducted as described in Nature Biotechnology, 2014 (32) 11, 1121-1133, incorporated herein by reference in its entirety, and using the antibodies listed in Table II. In brief, differentiated cells were incubated in TrypLE™ Express (Life Technologies, Carlsbad, Calif., Catalog No. 12604) for 5-10 minutes at 37° C., released into a single-cell suspension, after which they were washed twice with a staining buffer of PBS containing 0.2% BSA (BD Biosciences, San Jose, Calif., Catalog No. 554657). Intracellular antibody staining was accomplished by utilizing the LIVE/DEAD Violet Fluorescent reactive dye (Life Technologies, Carlsbad, Calif., Catalog No. L34955) at 4° C. for 30 minutes followed by a single wash in cold PBS. Fixing of cells was in 300 μl of Cytofix/Cytoperm Buffer (BD Biosciences, San Jose, Calif., Catalog No. 554723) followed by two washes in Perm/Wash Buffer (BD Biosciences, San Jose, Calif., Catalog No. 554722). Cells were then incubated with the appropriate antibodies at 4° C. for 30 minutes (for unconjugated antibodies) or 1 hour (for conjugated antibodies), and then washed twice prior to analysis on the BD FACS Canto II using BD FACS Diva Software with at least 30,000 events being acquired. Non-viable cells were excluded during FACS analysis, and gating was determined by using isotype antibodies (“IgG”). IgG FACS data is shown as the top panel for each FACS experiment presented. Antibodies were tested for specificity using positive controls, such as Caco-2 cells, or negative controls, such as S1D3 definitive endoderm (“DE”) cells.

[4] = S3D5, compared to pancreas-biased S4D3 cells

BMP4: Bone morphogenic protein-4, 50 ng/ml with 1 μM retinoic acid in BLAR medium during Stage 3
S3D5 cells obtained from one hESC [1]: 4.56±2.60
ALB gene expression ([2]; S3D5): not observed
HOXA13 gene expression ([2]; S3D5): not induced
HOXC5 gene expression ([2]; S3D5): strongly induced
KLF5 gene expression ([2]; S3D5): upregulated
LGR5 gene expression ([2]; S3D5): not induced
SOX2 gene expression ([2]; S3D5): below levels seen in hESC and Caco-2 cells
SOX9 gene expression ([2]; S3D5, compared to Caco-2 cells): Strong induction
PDX1 gene expression [2, 4]: induced at low levels
PTF1A gene expression [2, 4]: not induced
CDX2 gene expression ([2]; during Stage 3): induced
FOXA2 gene expression ([2]; during Stage 3): maintained
S3D5 cells exhibiting SOX2 and CDX2 co-presence [3]: 1.45±0.15%
percent of cells co-positive for both CDX2 and PDX1 [3]: 69.4±14.2%
percent of cells co-present for both CDX2 and SOX9 [3]: 98.7±0.25%
percent of S3D5 cells co-present for both CDX2 and FOXA2 protein ([3]; Stage 3 in BLAR medium with 1 μM retinoic acid and 50 ng/ml BMP): 90.0±5.85%
percentage KI67-protein positive cells of total S3D5 cells ([3]; total cells >90% CDX2-positive): 16.8±3.12%
